Drawing on patent US20240190892A1, “PLASMA KALLIKREIN INHIBITORS” (Merck Sharp & Dohme LLC, priority 2021, published 2024), this text covers IC50 for 17 molecules.

The target of test [1] is Human plasma kallikrein (Homo sapiens (Human), UniProt P03952). As to the kind of experiment: Plasma Kallikrein Assay. It is filed as biochemical. The settings on record: purified Human plasma kallikrein 0.5 nM, substrate Acetyl-K-P-R-AFC, pH 7.4; read-out: PKal IC50. How it is done:
(§1) The effectiveness of a compound of the present invention as an inhibitor of plasma kallikrein can be determined using a relevant purified serine protease, and an appropriate synthetic substrate. The rate of hydrolysis of the chromogenic or fluorogenic substrate by the relevant serine protease was measured both in the absence and presence of compounds of the present invention. Assays were conducted at rt or at 37° C. […] A decrease in the rate of fluorescence change in the presence of inhibitor is indicative of enzyme inhibition. Such methods are known to one skilled in the art. The results of this assay are expressed as the half-maximal inhibitory concentrations (IC50), or the inhibitory constant, Ki.
Plasma kallikrein determinations were made in 50 mM HEPES buffer at pH 7.4 containing 150 mM NaCl, 5 mM CaCl2, and 0.1% PEG 8000 (polyethylene glycol; Fisher Scientific). Determinations were made using purified Human plasma kallikrein at a final concentration of 0.5 nM (Enzyme Research Laboratories) and the synthetic substrate, Acetyl-K-P-R-AFC (Sigma #C6608) at a concentration of […].
Activity assays were performed by diluting a stock solution of substrate at least tenfold to a final concentration ≤0.2 Km into a solution containing enzyme or enzyme equilibrated with inhibitor. Times required to achieve equilibration between enzyme and inhibitor were determined in control experiments. The reactions were performed under linear progress curve conditions and fluorescence increase measured at 405 Ex/510 Em nm. Values were converted to percent inhibition of the control reaction (after subtracting 100% Inhibition value). IC50 was determined by inflection point from a four parameter logistic curve fit. Ki was calculated using the Cheng Prusoff equation, Ki=IC50/(1+[S]/Km)).

Test [2] has as its target Coagulation factor XIa (Homo sapiens (Human), UniProt P03951). Kind of test: Factor XIa Assay. The settings on record: human factor XIa 0.04 nM, substrate GPR-AFC, 30 min pre-incubation at 25° C., pH 7.4; read-out: FXIa IC50. The test is classed as biochemical. The procedure:
as §1, with “Coagulation factor XIa” for “plasma kallikrein”
Compounds were pre-incubated for 30 min at 25° C. with human (0.04 nM) factor XIa in 50 mM HEPES buffer with 150 mM sodium chloride, 5 mM calcium chloride, 0.1% PEG 8000, pH 7.4. factor XIa enzymatic activity was determined by addition of the substrate glycine-proline-arginine-7-amido-4-trifluoromethylcoumarin (GPR-AFC) and measurement of the fluorescence at 400/505 nm after a 60 min incubation at 25° C. The % inhibition for each data point was calculated from the data and analyzed using the log (inhibitor) vs. response four parameters equation to determine the half-maximal inhibitory concentrations (IC50). The IC50 were converted to equilibrium inhibitory constants (Ki) using the Cheng-Prusoff equation.

What is called IC50 is the concentration at which inhibition is half-maximal.

Sequence of Coagulation factor XIa (P03951 388-625 limits assumed): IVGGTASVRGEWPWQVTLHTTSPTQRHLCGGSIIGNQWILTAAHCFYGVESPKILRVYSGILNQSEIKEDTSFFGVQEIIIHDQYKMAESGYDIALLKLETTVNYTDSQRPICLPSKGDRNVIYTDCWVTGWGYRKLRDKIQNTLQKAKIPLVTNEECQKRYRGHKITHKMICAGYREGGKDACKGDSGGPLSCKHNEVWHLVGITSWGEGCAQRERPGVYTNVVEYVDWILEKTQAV
Sequence of Coagulation factor XIa (P03951 19-387 partner limits assumed): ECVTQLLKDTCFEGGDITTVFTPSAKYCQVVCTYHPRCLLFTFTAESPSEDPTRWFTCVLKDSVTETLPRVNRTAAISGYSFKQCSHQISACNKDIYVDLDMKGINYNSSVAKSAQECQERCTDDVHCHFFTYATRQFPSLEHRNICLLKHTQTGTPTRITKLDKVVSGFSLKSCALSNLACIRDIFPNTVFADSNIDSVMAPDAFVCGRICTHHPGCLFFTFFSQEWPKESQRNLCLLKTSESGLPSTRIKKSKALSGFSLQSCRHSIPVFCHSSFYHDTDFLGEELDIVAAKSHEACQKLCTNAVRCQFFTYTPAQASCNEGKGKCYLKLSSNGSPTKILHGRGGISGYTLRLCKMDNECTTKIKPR
Sequence of Human plasma kallikrein (P03952 391-638 limits assumed): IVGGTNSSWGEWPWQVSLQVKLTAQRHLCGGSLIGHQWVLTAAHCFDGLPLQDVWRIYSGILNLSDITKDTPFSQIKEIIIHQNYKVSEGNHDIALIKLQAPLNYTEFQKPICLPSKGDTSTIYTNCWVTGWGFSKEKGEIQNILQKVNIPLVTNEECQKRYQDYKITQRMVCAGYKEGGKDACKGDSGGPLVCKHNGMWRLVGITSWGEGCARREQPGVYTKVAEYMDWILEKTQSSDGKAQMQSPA
Sequence of Human plasma kallikrein (P03952 20-390 partner limits assumed): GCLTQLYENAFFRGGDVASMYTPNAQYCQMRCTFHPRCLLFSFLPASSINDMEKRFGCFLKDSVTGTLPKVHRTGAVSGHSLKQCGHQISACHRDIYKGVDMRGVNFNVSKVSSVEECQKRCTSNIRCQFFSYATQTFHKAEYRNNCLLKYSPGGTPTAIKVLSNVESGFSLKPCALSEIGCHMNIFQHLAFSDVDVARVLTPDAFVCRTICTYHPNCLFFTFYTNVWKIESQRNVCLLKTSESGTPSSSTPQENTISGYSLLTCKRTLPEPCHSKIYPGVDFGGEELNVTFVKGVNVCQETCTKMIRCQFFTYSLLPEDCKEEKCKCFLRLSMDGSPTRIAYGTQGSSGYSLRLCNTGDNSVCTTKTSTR

`O=C1Nc2ccc(Cl)c(F)c2[C@]2(CCN(c3cc(C(=O)NCc4ccc(N5CC[C@H](F)C5)nc4)cnn3)C2)O1` [Example 5, (S)-6-(6-Chloro-5-fluoro-2-oxo-1,2-dihydrospiro[benzo[d][1,3]oxazine-4,3′-pyrrolidin]-1′-yl)-N-((6-((S)-3-fluoropyrrolidin-1-yl)pyridin-3-yl)methyl)pyridazine-4-carboxamide]: the IC50 in test [1] turned out to be 0.003 µM; in test [2], 5.65 µM.
On the same counts, the results for `O=C1Nc2ccc(Cl)c(F)c2[C@]2(CCN(c3cc(C(=O)NCc4ccc(N5CCC(F)(F)C5)c(F)c4)cnn3)C2)O1` [Example 7, (S)-6-(6-Chloro-5-fluoro-2-oxo-1,2-dihydrospiro[benzo[d][1,3]oxazine-4,3′-pyrrolidin]-1′-yl)-N-(4-(3,3-difluoropyrrolidin-1-yl)-3-fluorobenzyl)pyridazine-4-carboxamide] are 0.0335 µM and 10 µM.
Take `O=C1Nc2ccc(Cl)c(F)c2[C@]2(CCN(c3cncc(C(=O)NCc4ccc(N5CCCCC5)nc4)n3)C2)O1` [Example 41, (S)-6-(6-Chloro-5-fluoro-2-oxo-1,2-dihydrospiro[benzo[d][1,3]oxazine-4,3′-pyrrolidin]-1′-yl)-N-((6-(piperidin-1-yl)pyridin-3-yl)methyl)pyrazine-2-carboxamide]: the IC50 in test [1] is 0.0354 µM; in test [2], 10 µM.
Turning to `Cc1cnn(Cc2ccc(CNC(=O)c3cncc(N4CC[C@]5(C4)OC(=O)Nc4ccc(Cl)c(F)c45)c3)cc2)c1` [Example 26, (S)-5-(6-Chloro-5-fluoro-2-oxo-1,2-dihydrospiro[benzo[d][1,3]oxazine-4,3′-pyrrolidin]-1′-yl)-N-(4-((4-methyl-1H-pyrazol-1-yl)methyl)benzyl)nicotinamide], the results for the IC50 in test [1] and in test [2] were 0.0031 µM and 10 µM, respectively.
`O=C(Cc1ccc(Cn2ccccc2=O)cc1)Nc1cncc(N2CC[C@]3(C2)OC(=O)Nc2ccc(Cl)c(F)c23)c1` [Example 52, (S)-N-(5-(6-Chloro-5-fluoro-2-oxo-1,2-dihydrospiro[benzo[d][1,3]oxazine-4,3′-pyrrolidin]-1′-yl)pyridin-3-yl)-2-(4-((2-oxopyridin-1(2H)-yl)methyl)phenyl)acetamide]: the concentration for half-maximal inhibition (IC50) in test [1] was found to be 0.019 µM; in test [2], 10 µM.
On the same counts, the results for `O=C1Nc2ccc(Cl)c(F)c2[C@]2(CCN(c3cncc(C(=O)NCc4ccc(Cn5ccccc5=O)nc4)c3)C2)O1` [Example 15, (S)-5-(6-Chloro-5-fluoro-2-oxo-1,2-dihydrospiro[benzo[d][1,3]oxazine-4,3′-pyrrolidin]-1′-yl)-N-((6-((2-oxopyridin-1(2H)-yl)methyl)pyridin-3-yl)methyl)nicotinamide] are 0.0006 µM and 10 µM.
Take `O=C1Nc2ccc(Cl)c(F)c2[C@]2(CCN(c3cc(C(=O)NCc4ccc(Cn5ccccc5=O)cc4)ccn3)C2)O1` [Example 16, (S)-2-(6-Chloro-5-fluoro-2-oxo-1,2-dihydrospiro[benzo[d][1,3]oxazine-4,3′-pyrrolidin]-1′-yl)-N-(4-((2-oxopyridin-1(2H)-yl)methyl)benzyl)isonicotinamide]: the IC50 in test [1] worked out at 0.05 µM; in test [2] it was 10 µM.
Turning to `O=C1Nc2ccc(Cl)c(F)c2[C@]2(CCN(c3cncc(C(=O)NCc4ccc5ccc(=O)oc5c4)n3)C2)O1` [Example 30, (S)-6-(6-Chloro-5-fluoro-2-oxo-1,2-dihydrospiro[benzo[d][1,3]oxazine-4,3′-pyrrolidin]-1′-yl)-N-((2-oxo-2H-chromen-7-yl)methyl)pyrazine-2-carboxamide], the figures for the IC50 in test [1] and in test [2] were 0.0209 µM and 10 µM, respectively.
Consider `Cc1cnn(Cc2ccc(CNC(=O)c3cncc(N4CC[C@]5(C4)OC(=O)Nc4ccc(Cl)c(F)c45)c3)cn2)c1` [Example 20, (S)-5-(6-Chloro-5-fluoro-2-oxo-1,2-dihydrospiro[benzo[d][1,3]oxazine-4,3′-pyrrolidin]-1′-yl)-N-((6-((4-methyl-1H-pyrazol-1-yl)methyl)pyridin-3-yl)methyl)nicotinamide], for which the IC50 in test [1] was 0.0013 µM; in test [2], 10 µM.
On the same counts, the results for `O=C1Nc2ccc(Cl)c(F)c2[C@]2(CCN(c3cncc(C(=O)NCc4ccc(N5CC(F)C5)nc4)n3)C2)O1` [Example 33, (S)-6-(6-Chloro-5-fluoro-2-oxo-1,2-dihydrospiro[benzo[d][1,3]oxazine-4,3′-pyrrolidin]-1′-yl)-N-((6-(3-fluoroazetidin-1-yl)pyridin-3-yl)methyl)pyrazine-2-carboxamide] are 0.0254 µM and 10 µM.
Take `O=C1Nc2ccc(Cl)c(F)c2[C@]2(CCN(c3cncc(C(=O)NCc4ccc(N5CC[C@@H](F)C5)nc4)n3)C2)O1` [Example 39, (S)-6-(6-Chloro-5-fluoro-2-oxo-1,2-dihydrospiro[benzo[d][1,3]oxazine-4,3′-pyrrolidin]-1′-yl)-N-((6-((R)-3-fluoropyrrolidin-1-yl)pyridin-3-yl)methyl)pyrazine-2-carboxamide]: the IC50 in test [1] stood at 0.0258 µM; in test [2], 10 µM.
Turning to `CN1CC(F)(F)CC1c1ccc(CNC(=O)c2cnnc(N3CC[C@]4(C3)OC(=O)Nc3ccc(Cl)c(F)c34)c2)cn1` (stereo in doubt) [Example 13, (S)-6-(6-Chloro-5-fluoro-2-oxo-1,2-dihydrospiro[benzo[d][1,3]oxazine-4,3′-pyrrolidin]-1′-yl)-N-((6-(4,4-difluoro-1-methylpyrrolidin-2-yl)pyridin-3-yl)methyl)pyridazine-4-carboxamide], the IC50 in test [1] was 0.0816 µM; in test [2], 10 µM.
On the same counts, the results for `CN1CCCC1c1ccc(CNC(=O)c2cnnc(N3CC[C@]4(C3)OC(=O)Nc3ccc(Cl)c(F)c34)c2)cn1` (stereo in doubt) [Example 11, (S)-6-(6-Chloro-5-fluoro-2-oxo-1,2-dihydrospiro[benzo[d][1,3]oxazine-4,3′-pyrrolidin]-1′-yl)-N-((6-(1-methylpyrrolidin-2-yl)pyridin-3-yl)methyl)pyridazine-4-carboxamide] are 0.0039 µM and 10 µM.
The corresponding values for `CN1CCCC1c1ccc(CNC(=O)c2cnnc(N3CC[C@]4(C3)OC(=O)Nc3ccc(Cl)c(F)c34)c2)cc1` (stereo in doubt) [Example 10, (S)-6-(6-Chloro-5-fluoro-2-oxo-1,2-dihydrospiro[benzo[d][1,3]oxazine-4,3′-pyrrolidin]-1′-yl)-N-(4-(1-methylpyrrolidin-2-yl)benzyl)pyridazine-4-carboxamide] are 0.0025 µM and 10 µM.
On to `O=C1Nc2ccc(Cl)c(F)c2[C@]2(CCN(c3cncc(C(=O)NCc4ccc5c(n4)NCCC5)n3)C2)O1` [Example 31, (S)-6-(6-Chloro-5-fluoro-2-oxo-1,2-dihydrospiro[benzo[d][1,3]oxazine-4,3′-pyrrolidin]-1′-yl)-N-((5,6,7,8-tetrahydro-1,8-naphthyridin-2-yl)methyl)pyrazine-2-carboxamide], for which the results for the IC50 in test [1] and in test [2] were 0.0086 µM and 10 µM, respectively.
The corresponding values for `N#CCCN(Cc1ccc(CNC(=O)c2cnnc(N3CC[C@]4(C3)OC(=O)Nc3ccc(Cl)c(F)c34)c2)cc1)C1CC1` [Example 49, (S)-6-(6-Chloro-5-fluoro-2-oxo-1,2-dihydrospiro[benzo[d][1,3]oxazine-4,3′-pyrrolidin]-1′-yl)-N-(4-(((2-cyanoethyl)(cyclopropyl)amino)methyl)benzyl)pyridazine-4-carboxamide] are 0.0089 µM and 10 µM.
Take `O=C1Nc2ccc(Cl)c(F)c2[C@]2(CCN(c3cc(C(=O)NCc4ccc(N5CCC(F)(F)C5)nc4)cnn3)C2)O1` [Example 6, (S)-6-(6-Chloro-5-fluoro-2-oxo-1,2-dihydrospiro[benzo[d][1,3]oxazine-4,3′-pyrrolidin]-1′-yl)-N-((6-(3,3-difluoropyrrolidin-1-yl)pyridin-3-yl)methyl)pyridazine-4-carboxamide]: the IC50 in test [1] is 0.004 µM; in test [2], 10 µM.
